Measured values from patent US20120219615A1, “Therapeutic Use of a TLR Agonist and Combination Therapy” (The Trustees of the University of Pennsylvania, priority 2010, published 2012).

Key:
Type in all cases: cell-based
TLR8 = molecular target: T1, TLR8 (Homo sapiens, UniProt Q9NR97); test: TNFα production in PBMCs (marker of TLR8 activation)
T1 construct: assessed in peripheral blood mononuclear cells (PBMCs) from 15 healthy donors; endogenous in cells; host or cells: PBMCs from 15 healthy donors
T1 sequence (Q9NR97 27-1041): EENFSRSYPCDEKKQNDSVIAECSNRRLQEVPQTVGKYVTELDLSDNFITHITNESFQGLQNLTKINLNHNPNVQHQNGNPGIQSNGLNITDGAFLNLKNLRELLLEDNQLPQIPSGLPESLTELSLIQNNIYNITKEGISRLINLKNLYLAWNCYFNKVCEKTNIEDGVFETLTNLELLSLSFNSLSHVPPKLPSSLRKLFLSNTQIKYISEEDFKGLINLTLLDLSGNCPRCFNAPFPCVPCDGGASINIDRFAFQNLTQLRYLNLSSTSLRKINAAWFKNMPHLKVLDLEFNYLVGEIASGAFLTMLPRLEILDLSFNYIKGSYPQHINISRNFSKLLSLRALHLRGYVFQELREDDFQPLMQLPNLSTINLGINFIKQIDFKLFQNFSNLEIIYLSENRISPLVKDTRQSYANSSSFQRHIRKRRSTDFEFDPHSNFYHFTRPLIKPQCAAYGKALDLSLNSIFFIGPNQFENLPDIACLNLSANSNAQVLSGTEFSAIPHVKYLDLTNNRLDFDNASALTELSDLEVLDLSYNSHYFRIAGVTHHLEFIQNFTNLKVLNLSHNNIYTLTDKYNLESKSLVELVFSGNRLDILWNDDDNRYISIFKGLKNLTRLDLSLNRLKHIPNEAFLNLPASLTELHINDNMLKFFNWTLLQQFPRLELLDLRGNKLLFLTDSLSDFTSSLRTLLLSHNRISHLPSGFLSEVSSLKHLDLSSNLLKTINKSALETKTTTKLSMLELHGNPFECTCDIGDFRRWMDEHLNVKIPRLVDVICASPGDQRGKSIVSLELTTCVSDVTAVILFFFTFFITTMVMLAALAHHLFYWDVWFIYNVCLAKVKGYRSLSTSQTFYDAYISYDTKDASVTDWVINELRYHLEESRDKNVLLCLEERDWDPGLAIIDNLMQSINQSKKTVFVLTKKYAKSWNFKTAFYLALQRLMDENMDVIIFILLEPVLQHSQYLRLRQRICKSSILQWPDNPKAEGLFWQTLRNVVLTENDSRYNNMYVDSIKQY
Method: (§1) The half-maximal effective concentration (EC50) for VTX-2337 activation of TLR8 and TLR7 was assessed in peripheral blood mononuclear cells (PBMCs) from 15 healthy donors and also in HEK293 cells transfected with TLR8 or TLR7 and an NF-κB driven reporter gene. […] Also it was observed that VTX-2337 had no activity on TLR2, TLR3, TLR4, TLR5, TLR6, or TLR9 at concentrations up to 25 μM.

TLR4 = TLR4 (Homo sapiens, UniProt O00206+Q9Y6Y9); test: Activity on TLR4; conditions: concentrations up to 25 μM
Method: as §1

TLR2 = TLR2 (Homo sapiens, UniProt O60603); test: Activity on TLR2; conditions: concentrations up to 25 μM
Method: as §1

Chain of TLR4 (O00206 24-839, species assumed): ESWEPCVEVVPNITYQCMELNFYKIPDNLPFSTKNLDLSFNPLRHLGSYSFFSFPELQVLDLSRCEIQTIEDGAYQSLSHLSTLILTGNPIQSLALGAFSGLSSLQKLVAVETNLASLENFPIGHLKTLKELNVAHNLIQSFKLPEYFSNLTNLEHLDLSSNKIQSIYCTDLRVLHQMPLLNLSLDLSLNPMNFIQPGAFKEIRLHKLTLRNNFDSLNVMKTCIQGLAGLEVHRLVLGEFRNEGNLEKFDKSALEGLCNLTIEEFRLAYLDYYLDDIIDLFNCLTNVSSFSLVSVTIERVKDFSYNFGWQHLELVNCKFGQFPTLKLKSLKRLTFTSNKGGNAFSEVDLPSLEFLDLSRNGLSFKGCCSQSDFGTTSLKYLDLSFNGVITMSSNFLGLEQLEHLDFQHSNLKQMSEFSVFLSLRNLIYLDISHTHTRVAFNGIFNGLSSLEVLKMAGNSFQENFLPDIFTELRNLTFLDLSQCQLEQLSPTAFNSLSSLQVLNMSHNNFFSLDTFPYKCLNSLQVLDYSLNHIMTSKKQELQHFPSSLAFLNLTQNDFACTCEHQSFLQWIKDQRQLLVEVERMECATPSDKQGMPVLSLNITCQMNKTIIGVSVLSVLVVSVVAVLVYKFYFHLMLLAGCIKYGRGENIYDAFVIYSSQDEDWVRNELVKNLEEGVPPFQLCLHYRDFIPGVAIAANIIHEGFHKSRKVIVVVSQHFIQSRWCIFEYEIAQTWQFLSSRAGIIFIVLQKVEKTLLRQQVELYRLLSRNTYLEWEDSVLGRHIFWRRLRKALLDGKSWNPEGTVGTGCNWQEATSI
Chain of TLR4 (Q9Y6Y9 17-160 limits assumed, species assumed): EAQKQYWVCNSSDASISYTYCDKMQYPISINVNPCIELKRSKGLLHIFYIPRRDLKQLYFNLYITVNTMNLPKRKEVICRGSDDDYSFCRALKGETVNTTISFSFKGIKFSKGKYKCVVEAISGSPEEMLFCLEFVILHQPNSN
Chain of TLR2 (O60603 21-784, species assumed): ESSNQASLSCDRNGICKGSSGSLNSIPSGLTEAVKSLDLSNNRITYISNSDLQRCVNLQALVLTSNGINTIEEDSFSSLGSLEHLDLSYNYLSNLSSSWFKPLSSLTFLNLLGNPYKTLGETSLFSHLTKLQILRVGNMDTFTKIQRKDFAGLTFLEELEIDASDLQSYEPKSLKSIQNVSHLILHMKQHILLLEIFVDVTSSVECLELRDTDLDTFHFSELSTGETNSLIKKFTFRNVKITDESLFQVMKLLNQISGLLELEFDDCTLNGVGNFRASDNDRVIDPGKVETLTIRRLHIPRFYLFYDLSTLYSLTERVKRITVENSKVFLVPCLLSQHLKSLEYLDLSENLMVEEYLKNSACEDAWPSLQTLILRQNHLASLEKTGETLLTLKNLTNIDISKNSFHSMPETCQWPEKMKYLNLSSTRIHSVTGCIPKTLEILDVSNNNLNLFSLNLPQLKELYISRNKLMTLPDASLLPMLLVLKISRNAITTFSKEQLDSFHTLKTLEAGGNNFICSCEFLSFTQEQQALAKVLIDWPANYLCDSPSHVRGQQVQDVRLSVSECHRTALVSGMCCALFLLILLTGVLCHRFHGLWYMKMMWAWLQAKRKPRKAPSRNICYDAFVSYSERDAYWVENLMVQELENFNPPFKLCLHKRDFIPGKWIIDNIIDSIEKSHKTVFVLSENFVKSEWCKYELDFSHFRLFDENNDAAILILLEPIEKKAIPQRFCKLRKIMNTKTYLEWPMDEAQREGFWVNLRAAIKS

SMILES: CCCN(CCC)C(=O)C1=Cc2ccc(-c3ccc(C(=O)N4CCCC4)cc3)cc2N=C(N)C1 [VTX-2337, 2-amino-N,N-dipropyl-8-(4-(pyrrolidine-1-carbonyl)phenyl)-3H-benzo[b]azepine-4-carboxamide]
- EC50 (TLR8; PBMCs from 15 healthy donors): 74 nM
- selectivity for TLR8 relative to TLR7 (TLR8; PBMCs, TNFα vs IFNα EC50): > 45 fold
- activity on TLR4 (TLR4): no activity
- activity on TLR2 (TLR2): no activity
